Consider 1 molecule from patent US20050148534A1, “Small molecule compositions and methods for increasing drug efficiency using compositions thereof” (priority 2003, published 2005).

Read-outs that look alike come from different tables or passages of the source. A value given as a limit tells only on which side of the number the result lay.

The target in data set [1] is T1, Human thymidine kinase 1 (TK1) (Homo sapiens, UniProt P04183).
T1 construct: His tag (from pET28b(+)) (N); made in house; host or cells: E. coli BL21-codon plus
T1 sequence (P04183 1-234): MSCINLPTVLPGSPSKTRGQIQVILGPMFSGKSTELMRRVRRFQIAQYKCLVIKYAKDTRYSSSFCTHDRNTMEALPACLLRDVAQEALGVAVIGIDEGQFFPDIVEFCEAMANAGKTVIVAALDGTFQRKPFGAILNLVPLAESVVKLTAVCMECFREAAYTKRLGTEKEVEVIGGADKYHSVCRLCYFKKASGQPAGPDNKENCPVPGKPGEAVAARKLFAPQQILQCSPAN
Description: Thymidine kinase coupled (kinetic) ATP depletion assay. The note with it: initial velocity relative to thymidine; 100 μM conjugate. It is filed as biochemical. On the procedure:
Thymidine kinase, viral thymidine kinase, TK-1 deoxycytidine kinase, and deoxyguanosine kinase activities are determined by subjecting a first end of a linker used in synthesizing linker-substrate constructs to a first test. The first test may involve observing ADP formation, an obligatory co-product of phospho group transfer from ATP which is catalyzed by the kinase to the C5′ hydroxyl group or its equivalent in the nucleoside or nucleoside analog. Formation of ADP is followed by a coupled enzyme assay well known in the art. ADP, formed from kinase phosphorylation, is used by pyruvate kinase to generate pyruvate from phosphoenolpyruvate which in turn is converted to lactate by lactate dehydrogenase. The lactate results in the consumption of NADH which is followed spectrophotometrically. The rate of nucleoside phosphorylation is then directly related to the rate of decrease in the observed NADH signal.
TK1 was amplified using PCR with forward primer 5′-[…]-3′ and reverse primer 5′-[…]-3′. The PCR product was digested with Nde I and Hind III. An N-terminal His-tagged TK1 construct, TK1/pET28b(+), was generated by subcloning TK1 into the Nde I and Hind III sites of prokaryotic expression vector pET28b (+) (Novagen, San Diego, Calif.). TK1 was expressed from TK1/pET28b(+) using E. coli strain BL21-codon plus (Stratagene, San Diego, Calif.) and purified by Ni column chromatography.
A coupled (kinetic) ATP depletion assay was developed to measure thymidine kinase activity. The reaction contained 100 mM Tris HCl, pH 7.5, 20 mM MgCl2, 100 mM KCl, 0.4 mM PEP, 0.2 mM NADH, Pyruvate Kinase (0.7 units)/Lactate Dehydrogenase (1.0 unit) (Sigma #PO294), 2.5-10 μg Thymidine Kinase, 100 μM thymidine or thymidine-drug conjugate in a volume of 75 μl. ATP (5 mM in 25 μl H2O) was added to initiate the reaction and the velocity of ATP depletion was monitored at 340 nm continuously for 15 minutes.

Data set [2] relates to MCF-7 breast carcinoma. Briefly: Cytotoxicity assay (monolayer), MCF-7. It is filed as cell-based. The note with it: Homo sapiens, MCF7. The procedure:
(§1) Statistical Assoc., 81, 991-999, 1986.
(§2) Monolayer assays with tumor cell lines (MCF-7 breast carcinoma and HT-29 colorectal carcinoma from ATCC) were carried out in triplicate in 96-well plates with RPMI1640 medium containing 5% fetal bovine serum, 100 U/ml penicillin and 100 μg/ml streptomycin. Normal human foreskin fibroblasts (HFF #CC-2509) were from Cambrex and were cultured in FGM-2 medium. Exponentially growing cells (5,000 MCF-7 or HT-29; 1,500 HFF) were plated in 100 μl medium and incubated overnight (5% CO2, 37° C.). Compounds (20 pM to 20 μM final concentration, 6-8 doses) and vehicle (DMSO) controls were added and the incubation was continued for an additional 72 hours. Final cell density was determined by incubating cultures with 25 μl AlamarBlue reagent (BioSource, Camarillo, Calif.) for 4 hours, followed by determination of fluorescence at excitation of 544 nm and emission of 590 nm with a SpectroMax Gemini EM fluorescence plate reader (Molecular Devices, Sunnyvale, Calif.). EC50 values were generated from dose-response curves by a 4-parameter method using Softmax PRO software. Mean EC50s (±SD) represent the average of all tests carried out for all lots of a given compound. […] Statistical Assoc., 81, 991-999 (1986).

In data set [3] the test system is Normal human foreskin fibroblasts (HFF). Description: Cytotoxicity assay (monolayer), HFF. The note with it: Fibroblast. The data set is classed as cell-based. The procedure: as §1, §2
In another data set the test system is MCF7. Description: Cytotoxicity assay, MCF7 SSA (SSA not explained). It is filed as cell-based. The note with it: Homo sapiens.
The subject of the next data set is HT29. Briefly: Cytotoxicity assay, HT29 SSA (SSA not explained). It is filed as cell-based. The note with it: Homo sapiens, HT-29; read-out: HT29 (EC50 Ave) SSA.
A short description of data set [4]: Serum stability in RPMI1640 medium containing 10% fetal bovine serum. It is filed as in vitro ADME. On the procedure: The stability of conjugates was measured in RPMI1640 cell culture medium containing 10% fetal bovine serum. The serum-containing medium was pre-warmed at 37° C. for 3 min prior to addition of test articles. Test articles, prepared in DMSO as 5 mM stocks, were added to the cell culture media to a final concentration of […]. Aliquots ([…]) were withdrawn in triplicate at 0, 4, 8, 24 and 72 hours and combined with the same volume of ice-cold acetonitrile to terminate the reaction. The mixture was centrifuged at 2,000×g for 10 minutes. One part of the supernatant was mixed with four parts of deionized water to bring down the percentage of organic solvent. The diluted samples were then assayed by LC/MS for the test article. The natural log of the percent remaining was plotted versus time. A linear fit was used to determine the rate constant. The fit was truncated after the percent of remaining test article was less than 10%. The elimination half-lives associated with the disappearance of test articles were determined to compare their relative stability. The assays were carried out by Absorption Systems (Exton, Pa.).

The subject of data set [5] is breast carcinoma, colon carcinoma and leukemia. Description: Cytotoxicity of drug-thymidine conjugates (Example 22). The data set is classed as cell-based.
Data set [6] can be described thus: Cytotoxicity assay (soft agar), MCF-7. The note with it: human.
Data set [7] has as its system MCF-7 breast carcinoma. Description: Cytotoxicity assay (soft agar), MCF-7. The note with it: Homo sapiens.
Data set [8] in a line: Cytotoxicity assay (soft agar), HT-29. The note with it: human.
Data set [9] deals with HT-29 colorectal carcinoma. Briefly: Cytotoxicity assay (soft agar), HT-29. The note with it: Homo sapiens.

The term EC50 denotes the concentration that produces a half-maximal response. For orientation: half-life means the time needed for the level to fall by half in the phase considered. The low end stands for fast loss, the high end for slow loss. Turning to `CC(=O)O[C@H]1C(=O)[C@@]2(C)[C@H]([C@H](OC(=O)c3ccccc3)[C@]3(O)C[C@H](OC(=O)[C@H](O)[C@@H](NC(=O)c4ccccc4)c4ccccc4)C(C)=C1C3(C)C)[C@]1(OC(C)=O)CO[C@@H]1C[C@@H]2O` [Paclitaxel], in data set [1], the “Ave. TK1 Kinase Act.” value was “A (A<20)”. In addition, the half-maximal effective concentration (EC50) with MCF-7 breast carcinoma [2] (mean ± SD, read-out: MCF-7 Monolayer EC50) is 5 ± 2 nM; in the data set with MCF-7 breast carcinoma [2] (monolayer, 72 hours, AlamarBlue, read-out: MCF7 (EC50 Ave) ML), below 100 nM; in data set [3] (mean ± SD, read-out: HFF Monolayer EC50), 9 ± 5 nM; in data set [3] (monolayer, 72 hours, AlamarBlue, read-out: HFF (EC50 Ave) ML) it was below 100 nM; in the data set on MCF7 it was below 100 nM; with HT29 it was below 100 nM. For the same molecule, the concentration for a half-maximal effect (EC50) in data set [5] was 5 to 8 nM; in the data set on MCF-7 breast carcinoma [7] (MCF7, read-out: MCF7 (EC50 Ave) SA), below 100 nM; in the data set with MCF-7 breast carcinoma [7] (MCF7, read-out: MCF-7 Soft Agar EC50) it was 6 ± 3 nM; in data set [9] (HT-29, read-out: HT29 (EC50 Ave) SA), below 100 nM; in data set [9] (HT-29, read-out: HT-29 Soft Agar EC50) it was 15 ± 2 nM. Also, the “Relative Percent Remaining at 0 hr” value in data set [4] (37° C., medium with 10% fetal bovine serum, 0 hr) is listed as 100%. Moreover, the “Relative Percent Remaining at 4 hr” value in data set [4] (37° C., medium with 10% fetal bovine serum, 4 hr) is given as 73%. In addition, in [4] (37° C., medium with 10% fetal bovine serum, 8 hr), the “Relative Percent Remaining at 8 hr” value is 59%. In addition, the “Relative Percent Remaining at 24 hr” value in [4] (37° C., medium with 10% fetal bovine serum, 24 hr) was determined as 28%. Also, the “Relative Percent Remaining at 72 hr” value in [4] (37° C., medium with 10% fetal bovine serum, 72 hr) is given as below 3.0%. In data set [4] (bovine), the half-life is 660 min. The selectivity ratio worked out at 1.4 in [6] and 0.6 in data set [8].
